Measured values from US10568819B2, “Skin enhancing compositions and methods” (Sytheon Limited, priority 2016, dated 2020).
Where two headings read alike, the source gives them in different places.

Experiments:
Keratinocyte = assay: UVA-induced delayed formation of CPDs (dCPDs) in keratinocytes; assay type: cell-based; settings: 25 μg/ml
Method: (§1) A second study was carried out, similar to the first, except that this time the analysis was in assessing the efficacy, if any, of the presently taught aryl alkanones in reducing UVA-induced delayed formation of CPDs (dCPDs).

Keratinocytes = assay: UVA- and UVB-induced formation of immediate CPDs (iCPDs) in keratinocytes; assay type: cell-based
Method: (§2) Given the significance of CPDs in skin aging and damage, a study was undertaken to determine whether compounds of the present invention have the ability to directly protect the genome of skin cells from the mutagenic effect of UV light as evidenced by CPDs inhibition. The study was conducted in accordance with the method described by Mitchell et. al. [Mitchell, D L, The relative cytotoxicity of (6-4) photoproducts and cyclobutane dimers in mammalian cells. Photochem Photobiol, 48(1):51-57, 1988)] pursuant to which UVA- and UVB-induced formation of immediate CPDs (iCPDs) were determined.

Fibroblasts [1] = assay: UVA- and UVB-induced formation of immediate CPDs (iCPDs) in fibroblasts; assay type: cell-based; settings: 25 μg/ml
Method: as §2

[2] = test system: ϕX-174 RF bacteriophage supercoiled DNA; assay: UVA/AGE-albumin-induced DNA strand breaks (QPES); assay type: biochemical
Method: A study was undertaken to determine whether the aryl alkanones of the present invention have the ability to reduce photooxidative stress by physical Quencher of Photo-excited States (QPES) mechanism under UV light employing the method of Wondarak et al, (J Invest Dermatol, 119:489, 2002). Briefly, 100 ng (experiment 1) or 200 ng (experiment 2) of ϕX-174 RF bacteriophage supercoiled DNA was irradiated in the presence of […] of filtered glycated bovine serum albumin (20 mg/ml BSA reacted for 3 weeks with 180 mg/ml glucose at 37° C.) in a final volume of 100 μl. The irradiation was performed in a 96 well plate without lid, with UVA lamp (Ultra-lum UVA-28T at 6.4 mW/cm^2) for 2 h, delivering a total energy of […]. Following irradiation 10 μl of the reaction mixture was mixed with 2 μl of loading buffer, resolved in 1% agarose gel (at 90V for 20 min) and stained with ethidium bromide ([…]). The intact (supercoiled) lower (faster-migrating) band and the UVA-damaged (uncoiled) higher (slower-migrating) band were visualized using Hoefer transilluminator. Photographs of the gels were then processed using NIH ImageJ and ratio of unwound (damaged) to supercoiled (intact) bands was calculated and used to assess the protective activity of test materials.

[3] = Antioxidant power / quenching: singlet oxygen
Method: Separately, a study of the singlet oxygen quenching ability of Compound 1 and Compound 7 were evaluated.

NOX [4] = settings: UVA; Fibroblasts; 50 μg/ml
NOX [5] = settings: UVA; Keratinocytes; 50 μg/ml
Fibroblasts [6] = assay: UVA-induced delayed formation of CPDs (dCPDs) in fibroblasts; assay type: cell-based; settings: 25 μg/ml
Method: as §1

iNOS = iNOS (Homo sapiens, UniProt P35228); assay: Reduction of iNOS activity; assay type: biochemical; settings: read-out: Reduction of iNOS activity, Amount used in μM (IC50) values)
From the text: Accordingly, an investigation was undertaken to assess the efficacy of compounds according to the present teaching as compared to compounds that are closely structurally related thereto in inhibiting NO product.

[7] = Lipid peroxidation, squalene substrate; assay type: biochemical; settings: Squalene used as a substrate
[8] = Antioxidant power: peroxyl radicals
[9] = Antioxidant power: hydroxyl radicals
[10] = Antioxidant power: peroxynitrite
[11] = Antioxidant power: super oxide anion

Chain of iNOS (P35228 whole entry, species assumed): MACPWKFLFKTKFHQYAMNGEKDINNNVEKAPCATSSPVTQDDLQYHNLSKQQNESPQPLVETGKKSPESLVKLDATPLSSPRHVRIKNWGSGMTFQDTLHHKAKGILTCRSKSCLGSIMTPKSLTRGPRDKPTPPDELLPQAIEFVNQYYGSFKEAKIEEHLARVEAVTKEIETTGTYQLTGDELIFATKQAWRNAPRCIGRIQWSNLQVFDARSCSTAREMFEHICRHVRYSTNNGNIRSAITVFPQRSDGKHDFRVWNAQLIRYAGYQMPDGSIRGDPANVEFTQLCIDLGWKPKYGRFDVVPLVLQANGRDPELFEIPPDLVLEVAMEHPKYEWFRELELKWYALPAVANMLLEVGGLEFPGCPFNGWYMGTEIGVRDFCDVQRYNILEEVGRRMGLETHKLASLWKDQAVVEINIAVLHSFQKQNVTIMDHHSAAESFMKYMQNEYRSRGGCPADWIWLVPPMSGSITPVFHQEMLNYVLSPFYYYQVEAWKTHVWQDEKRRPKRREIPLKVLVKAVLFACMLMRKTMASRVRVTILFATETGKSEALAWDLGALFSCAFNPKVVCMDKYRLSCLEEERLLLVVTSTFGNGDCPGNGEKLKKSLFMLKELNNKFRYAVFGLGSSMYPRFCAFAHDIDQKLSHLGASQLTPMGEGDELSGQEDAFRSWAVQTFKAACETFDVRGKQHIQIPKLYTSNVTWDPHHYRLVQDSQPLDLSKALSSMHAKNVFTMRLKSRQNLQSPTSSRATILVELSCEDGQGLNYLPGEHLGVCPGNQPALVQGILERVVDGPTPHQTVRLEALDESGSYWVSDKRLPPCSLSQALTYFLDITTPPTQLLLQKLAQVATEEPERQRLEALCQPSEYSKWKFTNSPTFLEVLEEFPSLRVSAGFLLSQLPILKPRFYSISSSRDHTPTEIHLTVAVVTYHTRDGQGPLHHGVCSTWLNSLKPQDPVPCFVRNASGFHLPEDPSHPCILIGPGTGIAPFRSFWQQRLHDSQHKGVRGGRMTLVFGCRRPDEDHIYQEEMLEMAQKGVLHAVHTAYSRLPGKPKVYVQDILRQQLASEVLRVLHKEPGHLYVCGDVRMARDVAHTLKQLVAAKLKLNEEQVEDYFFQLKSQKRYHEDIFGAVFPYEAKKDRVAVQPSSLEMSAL

CCOC(=O)C(Cc1ccc(O)c(OC)c1)C(C)=O (centres unmarked) [Compound 2]
UVA/% Reduction in dCPDs vs. control, 0 hr. (Reduction in iCPDs) (Keratinocyte; 0 hr.): ^+0 hr.: ↓26% | UVA/% Reduction in dCPDs vs. control, 1 hr. (Keratinocyte; 1 hr.): 1 hr.: ↓13% | UVA/% Reduction in dCPDs vs. control, 2 hr. (Keratinocyte; 2 hr.): 2 hr.: ~0% | UVA/% Reduction in iCPDs vs. Control (Keratinocytes; 25 μg/ml): 26% | UVB/% Reduction iCPDs vs. Control (Keratinocytes; 25 μg/ml): 25% | UVB/% Reduction iCPDs vs. Control (Fibroblasts [1]): 44%

COc1cc(CC(C(C)=O)C(C)=O)cc(OC)c1OC [Compound 7]
% DNA strand breaks ([2]; 0.03 μg/ml): 33% | % DNA strand protection ([2]; 0.03 μg/ml): 67% | % DNA strand breaks ([2]; 0.1 μg/ml): 15% | % DNA strand protection ([2]; 0.1 μg/ml): 85% | Antioxidant Power, Singlet oxygen [3]: 6,359+ μmole Trolox Equivalent/gram | Singlet oxygen quenching ([3]; ±10% error): 6,359 μMole Trolox Equivalent/g

CCOC(=O)C(Cc1cc(OC)c(OC)c(OC)c1)C(C)=O (centres unmarked) [Compound 8]
reduction of NOX activity (NOX [4]): −14% | reduction of NOX activity (NOX [5]): −17% | UVA/% Reduction in iCPDs vs. Control (Keratinocytes; 50 μg/ml): 42%^+ | UVA/% Reduction in dCPDs vs. control, 0 hr. (Reduction in iCPDs) (Fibroblasts [6]; 0 hr., product incubated for 24 hrs. plus UVA irradiation): ^+0 hr.: No effect | UVA/% Reduction in dCPDs vs. control, 1 hr. (Fibroblasts [6]; 1 hr., product incubated for 24 hrs. plus UVA irradiation): 1 hr.: ↓35% | UVA/% Reduction in dCPDs vs. control, 2 hr. (Fibroblasts [6]; 2 hr., product incubated for 24 hrs. plus UVA irradiation): 2 hr.: ↓52% | UVA/% Reduction in dCPDs vs. control, 4 hr. (Fibroblasts [6]; 4 hr., product incubated for 24 hrs. plus UVA irradiation): 4 hr.: ↓32%

COc1cc(CCC(C)=O)ccc1O [Zingerone, reference compound]
UVA/% Reduction in dCPDs vs. control (Keratinocyte; time not given): No effect | IC50 (iNOS): 364 µM | UVA/% Reduction in iCPDs vs. Control (Keratinocytes; 25 μg/ml): No effect | UVB/% Reduction iCPDs vs. Control (Keratinocytes; 25 μg/ml): No effect | UVA/% Reduction in dCPDs vs. control (Fibroblasts [6]; time not given): No effect | UVA/% Reduction in iCPDs vs. Control (Fibroblasts [1]; UVA): No effect | UVB/% Reduction iCPDs vs. Control (Fibroblasts [1]): No effect

Tocopherol
Lipid peroxidation IC50 value [7]: 30 µg/mL | Antioxidant Power, Peroxyl radicals [8]: 813 μmole Trolox Equivalent/gram | Antioxidant Power, Singlet oxygen [3]: 1,110 μmole Trolox Equivalent/gram | Antioxidant Power, Hydroxyl radicals [9]: Not detected | Antioxidant Power, Peroxynitrite [10]: 1 μmole Trolox Equivalent/gram | Antioxidant Power, Super oxide anion [11]: Not detected
